{
  "source": "paper PMC10485906",
  "about": "“Development of a Dihydroquinoline–Pyrazoline GluN2C/2D-Selective Negative Allosteric Modulator of the N-Methyl-D-aspartate Receptor” (ACS Chemical Neuroscience, 2023)",
  "key": {"GluN1/GluN2D": {"molecular_target": "GluN1/GluN2D (Rattus norvegicus, UniProt Q62645)", "sequence (Q62645 28-1323, other chains not shown)": "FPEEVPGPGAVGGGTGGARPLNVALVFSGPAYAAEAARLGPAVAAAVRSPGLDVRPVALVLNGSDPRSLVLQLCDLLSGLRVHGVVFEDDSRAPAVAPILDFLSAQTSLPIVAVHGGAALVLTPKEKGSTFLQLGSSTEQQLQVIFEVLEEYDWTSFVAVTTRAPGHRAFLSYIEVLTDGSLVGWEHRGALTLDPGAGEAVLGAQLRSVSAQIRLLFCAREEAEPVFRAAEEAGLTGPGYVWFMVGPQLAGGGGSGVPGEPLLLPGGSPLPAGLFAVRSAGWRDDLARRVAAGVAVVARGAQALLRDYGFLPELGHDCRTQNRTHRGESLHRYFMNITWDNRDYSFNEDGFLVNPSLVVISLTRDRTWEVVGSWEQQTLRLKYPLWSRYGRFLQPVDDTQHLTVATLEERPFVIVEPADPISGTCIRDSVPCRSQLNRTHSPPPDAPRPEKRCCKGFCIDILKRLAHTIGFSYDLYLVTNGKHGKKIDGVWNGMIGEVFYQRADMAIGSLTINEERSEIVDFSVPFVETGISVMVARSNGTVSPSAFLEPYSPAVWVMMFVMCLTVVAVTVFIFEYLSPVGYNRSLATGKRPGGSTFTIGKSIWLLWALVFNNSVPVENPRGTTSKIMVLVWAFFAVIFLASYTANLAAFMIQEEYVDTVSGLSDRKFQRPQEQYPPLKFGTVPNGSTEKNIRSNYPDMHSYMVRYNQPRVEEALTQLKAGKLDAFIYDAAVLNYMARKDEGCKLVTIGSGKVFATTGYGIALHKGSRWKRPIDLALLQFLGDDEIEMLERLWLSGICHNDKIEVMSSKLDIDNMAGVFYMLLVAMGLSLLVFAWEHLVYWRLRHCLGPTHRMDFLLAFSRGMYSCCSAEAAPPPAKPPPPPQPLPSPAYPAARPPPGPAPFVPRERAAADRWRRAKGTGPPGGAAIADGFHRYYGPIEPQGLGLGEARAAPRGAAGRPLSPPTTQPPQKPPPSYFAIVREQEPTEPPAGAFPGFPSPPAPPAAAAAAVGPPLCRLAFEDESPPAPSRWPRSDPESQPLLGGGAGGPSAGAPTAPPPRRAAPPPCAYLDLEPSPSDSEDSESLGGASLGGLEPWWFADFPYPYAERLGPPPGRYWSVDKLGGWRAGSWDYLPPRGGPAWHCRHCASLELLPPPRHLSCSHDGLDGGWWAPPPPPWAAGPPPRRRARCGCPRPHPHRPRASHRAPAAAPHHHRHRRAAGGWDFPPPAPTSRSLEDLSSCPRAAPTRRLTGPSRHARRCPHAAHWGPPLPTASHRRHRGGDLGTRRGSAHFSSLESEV", "test": "Whole-cell voltage-clamp recordings, HEK cells, GluN1/GluN2D (agonist dependence)", "type": "cell-based", "description": "We previously described the actions of the GluN2C/GluN2D-preferring negative allosteric modulator DQP-1105 as dependent on glutamate (but not glycine) binding, in that DQP-1105 affinity increases after GluN1/GluN2D NMDARs bind glutamate.[32] […] The concentration-dependent relaxation is indicative of an agonist-induced increase in potency that leads to re-equilibration of the inhibitor after agonist binding induces an increase in inhibitor affinity. We investigated the glutamate dependence of compound 2i (GluN1/GluN2D, Figure 4; GluN1/GluN2C, Figure S2), DQP-1105 (Figure S1), and compound (S)-2a (DQP-69;[33]Figure S3) using the same protocols.\nWe preincubated cells with glycine and the inhibitor 2i (DQP-997-74) and compared inhibitor potency during the peak and steady-state current responses to glutamate application. […] To investigate the time course of 2i inhibition, we fitted the relaxation of the current response with a single exponential function. If the current response time course reflects 2i binding, then the reciprocal of τinhibition should be linearly related to its concentration, with the slope equal to kON and intercept equal to kOFF. […] The deactivation of GluN1/GluN2D receptors (5.3 ± 0.2 s) was slowed by the presence of compound 2i when applied at concentrations of 0.1 μM (7.3 ± 0.3 s; p = 0.017) and 0.3 μM (10.5 ± 1.0 s; p = 0.002) but not at 0.03 μM (5.6 ± 0.3 s; p = 0.518; Figure 4E). […] This phenomenon was previously discovered for QNZ-46, a glutamate-dependent GluN2C/2D-selective inhibitor with a different structural core.[42] As proposed in that study, the prolonged deactivation may indicate that 2i slows a conformational change necessary for glutamate unbinding or 2i may need to unbind before glutamate can unbind.\nIn addition, we evaluated how glutamate dependence affects inhibition of responses to brief agonist applications similar to phasic glutamate release that occurs at synapses. To do so, we preincubated cells expressing GluN1/GluN2D receptors with the inhibitor 2i and then applied trains of five brief pulses of NMDA (which dissociates more rapidly than glutamate) and glycine from a pressurized micropipette to mimic repetitive synaptic transmission (Figure 4F). We measured the peak amplitude and compared the concentration–response curves for the inhibition of the first and last response (Figure 4G). The initial train of pulses in the absence of drug controls for systematic errors such as internalization of receptors.\nTo further evaluate whether 2i followed the law of mass action, we coapplied different concentrations of 2i with glutamate during the steady-state glutamate and glycine responses of GluN1/GluN2D receptors expressed in HEK cells (Figure 4H). […] We also fitted the onset and offset time course of the inhibition produced by compound 2i with a single exponential function (Figure 4J).\nHEK293 cells (HEK, ATCC CRL-1573) were plated on glass coverslips pretreated with 0.1 mg/mL poly-D-lysine and cultured in Dulbecco’s modified Eagle medium (DMEM) plus Glutamax (GIBCO 10569-10) supplemented with 10% fetal bovine serum, 10 U/mL of penicillin, and 10 μg/mL of streptomycin at 37 °C and 5% CO2. The cells were transiently transfected with cDNA encoding rat GluN1, GluN2D, and eGFP at a ratio of 1:1:5 by using the calcium phosphate precipitation method.[48] After 24–48 h following the transfection, the cells were perfused with external recording solution that contained (in mM) 3 KCl, 150 NaCl, 0.01 EDTA, 1.0 CaCl2, 10 HEPES, and 22 D-mannitol (the pH was adjusted to 7.4 with NaOH). The patch electrodes (resistance 3–5 MΩ) were prepared from thin-walled glass micropipettes (TW150F-4, World Precision Instruments, Sarasota, FL) by a dual-stage glass micropipette puller (PC-10, Narishige, Tokyo, Japan) and filled with internal solution containing (in mM) 110 D-gluconate, 110 CsOH, 30 CsCl, 5 HEPES, 4 NaCl, 0.5 CaCl2, 2 MgCl2, 5 BAPTA, 2 NaATP, and 0.3 NaGTP. […]"}, "hGluA3-L531Y": {"tested_on": "hGluA3-L531Y", "test": "Off-target, oocytes, GluA3", "type": "cell-based, human", "conditions": "1 µM compound; 100 µM glutamate", "method": "(§1) Analysis of Off-target Actions\n(§2) Compound (S)-(-)-2i was tested at 1 µM for actions at glycine-activated GluN1/GluN3A (human GluN1-F484A,T518L/GluN3A referred to a GluN1-FA,TL/GluN3A) and rat GluN1-4a/GluN3B in the presence of 0.5 µM CGP-78608. cRNA injection ratios for GluN1/GluN3 were 1:2. Compound (S)-(-)- 2i was also tested for actions at AMPA (rat GluA1, rat GluA2, human GluA3-L531Y), kainate (rat GluK2), nicotinic acetylcholine (rat α7 and α4β2, cRNA ratio 1:1), GABAA (rat α1β2γ2S, cRNA ratio 1:1:1), GABAC (rat ρ1), glycine (rat α1), and purinergic (human P2X) receptors expressed in Xenopus oocytes. cRNA encoding the receptor subunits was synthesized from linear template cDNA using the mMessage mMachine kit (Ambion). Oocytes were injected with 1-5 ng cRNA in a 50 nL volume and incubated in Barth's solution at 15°C for 2-5 days prior to recording. GluK2-expressing oocyte were incubated in 1 mg/ml (10 µM) concanavalin-A for 10 min prior to recording. The cDNAs encoding GABAC and glycine subunits were provided by Dr. D. Weiss (University of Texas Health Science Center at San Antonio). cDNAs encoding nicotinic acetylcholine receptor subunits were provided by Drs. […]\n(§3) GABA. […] Responses in presence of test compound were expressed as a percent of control. […]"}, "1b22-GABA": {"molecular_target": "T1, 1b22-GABA (Rattus norvegicus, UniProt P18508+P62813+P63138)", "T1 construct": "expressed in transfected cells; host or cells: Xenopus oocytes (cRNA injection, 1:1:1)", "T1 sequence (P62813 28-455)": "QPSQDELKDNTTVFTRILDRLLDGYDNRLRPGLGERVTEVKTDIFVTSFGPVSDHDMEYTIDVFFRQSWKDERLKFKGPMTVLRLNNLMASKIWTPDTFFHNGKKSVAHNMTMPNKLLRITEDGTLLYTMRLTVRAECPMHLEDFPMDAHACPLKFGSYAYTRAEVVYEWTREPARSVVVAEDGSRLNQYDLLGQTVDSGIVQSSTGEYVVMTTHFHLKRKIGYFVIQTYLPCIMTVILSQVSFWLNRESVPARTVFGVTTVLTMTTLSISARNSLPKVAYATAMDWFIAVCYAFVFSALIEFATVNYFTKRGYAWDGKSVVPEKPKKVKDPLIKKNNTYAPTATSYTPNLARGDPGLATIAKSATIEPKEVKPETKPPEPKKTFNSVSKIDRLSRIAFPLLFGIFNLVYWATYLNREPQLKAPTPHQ", "T1 sequence (P63138 25-474 limits assumed)": "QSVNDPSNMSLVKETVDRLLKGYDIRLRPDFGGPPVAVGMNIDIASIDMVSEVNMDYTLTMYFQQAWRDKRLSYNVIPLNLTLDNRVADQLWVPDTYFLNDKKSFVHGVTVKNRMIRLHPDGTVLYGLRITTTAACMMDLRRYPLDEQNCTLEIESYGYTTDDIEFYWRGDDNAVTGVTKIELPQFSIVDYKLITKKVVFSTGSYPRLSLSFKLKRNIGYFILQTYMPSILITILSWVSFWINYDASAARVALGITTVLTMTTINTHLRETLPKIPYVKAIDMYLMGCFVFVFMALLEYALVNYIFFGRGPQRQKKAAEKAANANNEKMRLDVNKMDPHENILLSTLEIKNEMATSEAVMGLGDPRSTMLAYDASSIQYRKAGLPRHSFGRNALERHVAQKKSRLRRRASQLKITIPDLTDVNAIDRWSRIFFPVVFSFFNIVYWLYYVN", "T1 sequence (P18508 39-466)": "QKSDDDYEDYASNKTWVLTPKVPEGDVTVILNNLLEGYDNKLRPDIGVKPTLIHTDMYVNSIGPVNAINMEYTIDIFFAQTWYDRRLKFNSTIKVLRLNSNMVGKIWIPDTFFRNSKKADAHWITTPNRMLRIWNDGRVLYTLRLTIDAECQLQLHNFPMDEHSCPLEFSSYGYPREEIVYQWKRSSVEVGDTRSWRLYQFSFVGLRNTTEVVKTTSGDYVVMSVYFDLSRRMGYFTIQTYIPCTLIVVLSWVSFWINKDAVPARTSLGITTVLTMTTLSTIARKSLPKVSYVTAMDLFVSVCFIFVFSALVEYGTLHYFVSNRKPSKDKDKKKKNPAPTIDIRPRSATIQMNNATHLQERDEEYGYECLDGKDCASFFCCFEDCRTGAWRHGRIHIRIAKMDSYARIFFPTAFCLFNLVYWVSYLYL", "test": "Off-target, oocytes, GABAA", "type": "cell-based", "conditions": "1 µM compound; 100 µM GABA", "method": "as §1, §2, §3"}},
  "data": [
    {"smiles": "O=C(O)CC(F)(F)C(=O)N1N=C(c2c(-c3ccc(Cl)cc3)c3ccccc3[nH]c2=O)CC1c1ccc(Cl)cc1", "note": "(stereo not drawn) [2i]", "values": [
      {"measurement": "τdeactivation following glutamate removal", "setting": "GluN1/GluN2D; 0.03 μM compound, mean ± SEM", "value": "5.6 ± 0.3", "unit": "s"},
      {"measurement": "τdeactivation following glutamate removal", "setting": "GluN1/GluN2D; 0.1 μM compound, mean ± SEM", "value": "7.3 ± 0.3", "unit": "s"},
      {"measurement": "τdeactivation following glutamate removal", "setting": "GluN1/GluN2D; 0.3 μM compound, mean ± SEM", "value": "10.5 ± 1.0", "unit": "s"},
      {"measurement": "Hill slope", "setting": "GluN1/GluN2D; coapplication with glutamate", "value": 0.93},
      {"measurement": "fold-change in IC50 for the peak and steady-state current responses", "setting": "GluN1/GluN2D; mean ± SEM, compared by ANOVA", "value": "3.0 ± 0.3"},
      {"measurement": "IC50 fold higher during peak compared to steady-state", "setting": "GluN1/GluN2D; ratio of IC50 values", "value": 3, "unit": "fold"},
      {"measurement": "IC50 fold higher at first pulse compared to fifth pulse", "setting": "GluN1/GluN2D; trains of brief agonist applications", "value": 1.9, "unit": "fold"}
    ]},
    {"smiles": "O=C(O)CC(F)(F)C(=O)N1N=C(c2c(-c3ccc(Cl)cc3)c3ccccc3[nH]c2=O)C[C@H]1c1ccc(Cl)cc1", "note": "[(S)-(−)-2i]", "values": [
      {"measurement": "% control hGluA3-L531Y", "setting": "hGluA3-L531Y", "value": "105 ± 1.2", "unit": "%"},
      {"measurement": "% control 1b22-GABA", "setting": "1b22-GABA", "value": "85 ± 2.0", "unit": "%"}
    ]}
  ]
}
